In patent US11827616B2, “Heterocyclic compounds as pesticides” (Discovery Purchaser Corporation, priority 2018, dated 2023):

Legend:
Format in all cases: in vivo
Rhipicephalus sanguineus = Rhipicephalus sanguineus in vitro contact test with adult brown dog ticks; settings: application rate 5 μg/cm^2 (=500 g/ha); after 48 h
Procedure: Rhipicephalus sanguineus—In Vitro Contact Tests with Adult Brown Dog Ticks
(§1) For the coating of the test tubes, 9 mg of active compound are first dissolved in 1 ml of acetone p.a. and then diluted to the desired concentration with acetone p.a. 250 μl of the solution are distributed homogeneously on the inner walls and the base of a 25 ml glass tube by turning and rocking on an orbital shaker (rocking rotation at 30 rpm for 2 h). With 900 ppm of active compound solution and internal surface area 44.7 cm^2, given homogeneous distribution, an area-based dose of 5 μg/cm^2 is achieved.
After the solvent has evaporated off, the tubes are populated with 5-10 adult dog ticks (Rhipicephalus sanguineus), sealed with a perforated plastic lid and incubated in a horizontal position in the dark at room temperature and ambient humidity. After 48 h, efficacy is determined. To this end, the ticks are knocked to the base of the tube and incubated on a hotplate at 45-50° C. for not more than 5 min. Ticks which remain motionless on the base or move in such an uncoordinated manner that they are unable to deliberately avoid the heat by climbing upwards are considered to be dead or moribund.
An efficacy of 100% means that all the ticks were dead or moribund. 0% efficacy means that none of the ticks were harmed.

Phaedon cochleariae = Phaedon cochleariae spray test; settings: application rate 500 g/ha; after 7 days
Procedure: Phaedon cochleariae—Spray Test
(§2) Solvent: 78.0 parts by weight of acetone • • 1.5 parts by weight of dimethylformamide
(§3) Emulsifier: alkylaryl polyglycol ether
(§4) To produce a suitable active compound formulation, 1 part by weight of active compound is dissolved with the specified parts by weight of solvent and made up to the desired concentration with water containing an emulsifier concentration of 1000 ppm. To produce further test concentrations, the formulation is diluted with emulsifier-containing water.
Discs of Chinese cabbage leaves (Brassica pekinensis) are sprayed with an active compound formulation of the desired concentration and, after drying, populated with larvae of the mustard beetle (Phaedon cochleariae).
After 7 days, the efficacy in % is determined. 100% means that all the beetle larvae have been killed; 0% means that no beetle larvae have been killed.

Boophilus microplus = Boophilus microplus injection test; settings: application rate 20 μg/animal, after 7 days; for pest or weed control at 0.02 mg: Rhipicephalus microplus, 168 h, read-out: efficacy (laying of fertile eggs)
Procedure: Boophilus microplus—Injection Test
(§5) Solvent: dimethyl sulfoxide
To produce a suitable active compound formulation, 10 mg of active compound are mixed with 0.5 ml of solvent and the concentrate is diluted to the desired concentration with solvent.
1 μl of the active compound solution is injected into the abdomen of 5 engorged adult female cattle ticks (Boophilus microplus). The animals are transferred into dishes and kept in a climate-controlled room.
Efficacy is assessed after 7 days by laying of fertile eggs. Eggs which are not visibly fertile are stored in a climate-controlled cabinet until the larvae hatch after about 42 days. An efficacy of 100% means that none of the ticks has laid any fertile eggs; 0% means that all the eggs are fertile.

Lucilia cuprina = Lucilia cuprina test; settings: application rate 100 ppm; L1 larvae; after 2 days
Procedure: as §5
To produce a suitable active compound formulation, 10 mg of active compound are mixed with 0.5 ml of dimethyl sulfoxide, and the concentrate is diluted with water to the desired concentration.
About 20 L1 larvae of the Australian sheep blowfly (Lucilia cuprina) are transferred into a test vessel containing minced horsemeat and the active compound formulation of the desired concentration.
After 2 days, the kill in % is determined. 100% means that all the larvae have been killed; 0% means that no larvae have been killed.

Spodoptera frugiperda = Spodoptera frugiperda spray test; settings: application rate 500 g/ha, after 7 days
Procedure: Spodoptera frugiperda—Spray Test
as §2, §3, §4
Leaf discs of maize (Zea mays) are sprayed with an active compound formulation of the desired concentration and, after drying, populated with caterpillars of the fall armyworm (Spodoptera frugiperda).
After 7 days, the efficacy in % is determined. 100% means that all the caterpillars have been killed; 0% means that no caterpillar has been killed.

Ctenocephalides felis [1] = experiment: Ctenocephalides felis in vitro contact test with adult cat fleas; settings: application rate 5 μg/cm^2 (=500 g/ha); after 48 h
Procedure: Ctenocephalides felis—In Vitro Contact Tests with Adult Cat Fleas
as §1
After the solvent has evaporated off, the tubes are populated with 5-10 adult cat fleas (Ctenocephalides felis), sealed with a perforated plastic lid and incubated in a horizontal position at room temperature and ambient humidity. After 48 h, efficacy is determined. To this end, the tubes are stood upright and the fleas are knocked to the base of the tube. Fleas which remain motionless at the base or move in an uncoordinated manner are considered to be dead or moribund.
100% efficacy means that all the fleas were dead or moribund. 0% efficacy means that no fleas were harmed.

Tetranychus urticae = Tetranychus urticae spray test, OP-resistant; settings: after 6 days
Procedure: Tetranychus urticae—Spray Test, OP-Resistant
Solvent: 78.0 Parts by Weight of Acetone • • 1.5 parts by weight of dimethylformamide
as §3, §4
Discs of bean leaves (Phaseolus vulgaris) infested with all stages of the greenhouse red spider mite (Tetranychus urticae) are sprayed with an active compound formulation of the desired concentration.
After 6 days, the efficacy in % is determined. 100% means that all the spider mites have been killed; 0% means that no spider mites have been killed.

[2] = test system: Anopheles gambiae strain RSPH (homozygot kdr); experiment: Anopheles test (ANPHGB surface treatment); settings: 24 hours after contact, read-out: efficacy (mortality in %)
Procedure: Anopheles Test (ANPHGB Surface Treatment)
Solvent: acetone+2000 ppm rapeseed oil methyl ester (RME)
To produce an appropriate active compound formulation, the active compound is dissolved in the solvent (2 mg/ml). The active compound formulation is pipetted onto a glazed tile and, after it has dried off, adult mosquitoes of the species Anopheles gambiae strain RSPH (homozygot kdr) are placed onto the treated tile. The exposure time is 30 minutes.
24 hours after contact with the treated surface, mortality in % is determined. 100% means that all mosquitoes have been killed; 0% means that none of the mosquitoes have been killed.

Ctenocephalides felis [3] = experiment: Ctenocephalides felis oral test; settings: application rate 100 ppm in citrated cattle blood; after 2 days
Procedure: Ctenocephalides felis—Oral Test
as §5
To produce a suitable active compound formulation, 10 mg of active compound are mixed with 0.5 ml of dimethyl sulfoxide. Dilution with citrated cattle blood gives the desired concentration.
About 20 unfed adult cat fleas (Ctenocephalides felis) are placed into a chamber which is closed at the top and bottom with gauze. A metal cylinder whose bottom end is closed with parafilm is placed onto the chamber. The cylinder contains the blood/active compound formulation, which can be imbibed by the fleas through the parafilm membrane.
After 2 days, the kill in % is determined. 100% means that all of the fleas have been killed; 0% means that none of the fleas have been killed.

| Compound | efficacy (ticks dead or moribund) (Rhipicephalus sanguineus) | efficacy (Phaedon cochleariae) | efficacy (laying of fertile eggs) (Boophilus microplus) | efficacy (kill in %) (Lucilia cuprina) | efficacy (Spodoptera frugiperda) | efficacy (fleas dead or moribund) (Ctenocephalides felis [1]) | efficacy (Tetranychus urticae; application rate 500 g/ha) | mortality at 20 mg/m2 ([2]; application rate 20 mg/m^2, exposure 30 minutes) | mortality at 100 mg/m2 ([2]; application rate 100 mg/m^2, exposure 30 minutes) | pest or weed control at 0.02 mg (Boophilus microplus) | pest or weed control at 500 g/ha (Spodoptera frugiperda; Spodoptera frugiperda, 168 h, read-out: efficacy) | efficacy (Tetranychus urticae; application rate 100 g/ha) | efficacy (kill in %) (Ctenocephalides felis [3]) |
| --- | --- | --- | --- | --- | --- | --- | --- | --- | --- | --- | --- | --- | --- |
| CON(C)CCOc1ccc(COc2cccc3c(Cl)c(Cl)ccc23)cn1 [Example 1] | 100% | 100% | 100% | 100% | 100% | 100% | 100% |  |  |  |  |  |  |
| CON(C)CCOc1ccc(COc2cccc(-c3ccccc3)c2)cn1 [Example 13] | 100% | 100% | 100% |  |  | 100% | 90% |  |  |  |  |  |  |
| CON(C)CCOc1ccc(COc2cccc3c(Cl)c(Cl)ccc23)nc1F [Example 17, 2-[(6-{[(5,6-dichloro-1-naphthyl)oxy]methyl}-2-fluoropyridin-3-yl)oxy]-N-methoxy-N-methylethanamine] |  |  |  |  |  |  |  | 80 to 100% | 80 to 100% | 100% |  |  |  |
| CN(CC#N)CCOc1cnc(COc2ccc(Cl)c3ccccc23)c(F)c1 [Example 27] | 100% | 100% | 100% |  | 100% |  | 90% |  |  |  |  |  |  |
| CCN(CC)CCOc1cnc(COc2cccc3c(Cl)c(Cl)ccc23)c(F)c1 [Example 32, 2-[(6-{[(5,6-dichloro-1-naphthyl)oxy]methyl}-5-fluoropyridin-3-yl)oxy]-N,N-diethylethanamine] |  |  |  |  |  | 100% | 90% |  |  | 100% | 100% |  |  |
| CN(CCOc1cnc(COc2ccc3oc4ccccc4c3c2)c(F)c1)C(C)(C)C [Example 34] |  | 100% | 80% |  | 100% |  | 90% |  |  |  |  |  |  |
| CC(C)N(C)CCOc1cnc(COc2cccc3c(Cl)c(Cl)ccc23)c(F)c1 [Example 44] |  | 100% | 100% |  | 100% | 100% |  |  |  |  |  | 90% |  |
| CON(C)CCOc1cnc(COc2ccc(F)c(-c3cccc(Cl)c3)c2)c(F)c1 [Example 49] | 100% | 100% | 100% | 100% | 100% | 100% | 100% |  |  |  |  |  |  |
| CN(CCOc1cnc(COc2ccc(F)c(-c3cccc(OC(F)(F)F)c3)c2)c(F)c1)C(C)(C)C [Example 51] |  | 83% |  |  | 100% |  | 100% |  |  |  |  |  |  |
| CON(C)CCOc1cnc(COc2ccc(Cl)c(-c3cccc(Cl)c3)c2)c(F)c1 [Example 56] | 100% | 100% | 100% | 100% | 100% | 100% | 100% |  |  |  |  |  |  |
| CON(C)CCOc1cnc(COc2ccc(Cl)c(-c3cccc(F)c3)c2)c(F)c1 [Example 61] | 100% |  | 100% | 100% | 100% | 100% | 90% |  |  |  |  |  | 90% |
| CON(C)CCOc1ccc(COc2cccc(-c3cccc(OC(F)(F)F)c3)c2)nc1 [Example 64] | 100% | 100% | 100% |  | 83% | 100% | 90% |  |  |  |  |  |  |
| CON(C)CCOc1ccc(COc2ccc(F)c(-c3cccc(Cl)c3)c2)nc1 [Example 65] | 100% |  | 100% | 90% | 100% | 100% | 100% |  |  |  |  |  |  |
| CON(C)CCOc1cnc(COc2cccc(-c3ccccc3)c2)c(F)c1 [Example 70] | 100% | 100% | 100% | 100% |  | 100% | 90% |  |  |  |  |  |  |
| CON(C)CCOc1cnc(COc2ccc(Cl)c(I)c2)c(F)c1 [Example 76] | 100% | 100% | 100% |  |  | 100% |  |  |  |  |  | 90% |  |
